Values joined by “and” are separate entries in the source; they are usually repeats but may differ in a detail not shown here. Equal entries are not always repeated. Where two headings read alike, the source gives them in different places.
What was measured:
BaIMPDH (wild-type) [1] = molecular target: T1, BaIMPDH (wild-type) (Bacillus anthracis, UniProt A0A6L8P2U9); test: biochemical; settings: Ki,app
BaIMPDH (wild-type) [2] = molecular target: T1, BaIMPDH (wild-type); test: biochemical
BaIMPDH (wild-type) [3] = molecular target: T1, BaIMPDH (wild-type); test: biochemical; type: biochemical
BaIMPDH = BaIMPDH (Bacillus anthracis, UniProt A0A6L8P2U9); test: biochemical; type: biochemical
BaIMPDH (wild-type) [4] = settings: cited from earlier work
BaIMPDH (wild-type) [5] = molecular target: T1, BaIMPDH (wild-type); type: biochemical
CjIMPDH = CjIMPDH (Campylobacter jejuni, UniProt Q0P9J4, DEL92-194/T195G); test: biochemical; settings: Ki,app
SpIMPDH = SpIMPDH (Streptococcus pyogenes, UniProt P0C0H6); test: biochemical
SaIMPDH = SaIMPDH (Staphylococcus aureus, UniProt Q6GJQ7); test: biochemical
CpIMPDH = CpIMPDH (Cryptosporidium parvum, UniProt Q8T6T2); test: biochemical
Ba-, Cj-, and ClpIMPDH = type: biochemical
BaIMPDH (wild-type) [6] = molecular target: T1, BaIMPDH (wild-type); test: biochemical; remark: listed apart in the source
[7] = k–9/k9, inhibitor dissociation constant from E-XMP*
[8] = k–8/k8, inhibitor dissociation constant from E·IMP

T1 sequence (A0A6L8P2U9 221-487, added parts left off): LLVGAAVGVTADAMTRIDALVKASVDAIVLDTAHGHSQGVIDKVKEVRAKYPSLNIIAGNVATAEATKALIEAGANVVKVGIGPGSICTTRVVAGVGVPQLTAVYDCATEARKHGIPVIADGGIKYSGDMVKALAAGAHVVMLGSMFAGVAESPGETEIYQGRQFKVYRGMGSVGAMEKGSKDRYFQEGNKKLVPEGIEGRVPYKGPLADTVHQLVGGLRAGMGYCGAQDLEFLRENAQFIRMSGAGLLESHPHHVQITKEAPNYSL
Chain of BaIMPDH (A0A6L8P2U9 221-487, added parts left off): as above
Chain of CpIMPDH (Q8T6T2 whole entry): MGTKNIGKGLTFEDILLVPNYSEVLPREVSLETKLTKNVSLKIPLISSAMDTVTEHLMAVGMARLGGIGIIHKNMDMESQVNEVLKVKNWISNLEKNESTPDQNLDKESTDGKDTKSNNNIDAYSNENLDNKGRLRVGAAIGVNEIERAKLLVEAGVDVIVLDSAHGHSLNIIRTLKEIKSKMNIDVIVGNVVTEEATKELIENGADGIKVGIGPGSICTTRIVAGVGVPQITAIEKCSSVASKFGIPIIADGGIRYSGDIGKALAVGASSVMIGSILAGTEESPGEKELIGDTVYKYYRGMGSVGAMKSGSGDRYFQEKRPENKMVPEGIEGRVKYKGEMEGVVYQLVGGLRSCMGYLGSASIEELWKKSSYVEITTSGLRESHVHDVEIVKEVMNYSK
Chain of SaIMPDH (Q6GJQ7 whole entry): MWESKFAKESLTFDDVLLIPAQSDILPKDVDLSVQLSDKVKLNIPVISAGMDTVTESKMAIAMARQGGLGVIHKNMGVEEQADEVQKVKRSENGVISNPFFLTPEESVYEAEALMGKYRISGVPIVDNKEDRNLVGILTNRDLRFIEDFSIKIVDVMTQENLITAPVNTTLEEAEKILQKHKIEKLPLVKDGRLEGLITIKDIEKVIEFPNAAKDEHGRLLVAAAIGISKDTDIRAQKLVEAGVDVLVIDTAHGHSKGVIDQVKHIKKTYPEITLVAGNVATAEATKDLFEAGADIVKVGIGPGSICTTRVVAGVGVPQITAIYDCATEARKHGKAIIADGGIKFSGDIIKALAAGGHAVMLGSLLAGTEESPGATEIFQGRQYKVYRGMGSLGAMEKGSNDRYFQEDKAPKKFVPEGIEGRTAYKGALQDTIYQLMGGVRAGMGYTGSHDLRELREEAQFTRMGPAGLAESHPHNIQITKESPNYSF
Chain of SpIMPDH (P0C0H6 whole entry): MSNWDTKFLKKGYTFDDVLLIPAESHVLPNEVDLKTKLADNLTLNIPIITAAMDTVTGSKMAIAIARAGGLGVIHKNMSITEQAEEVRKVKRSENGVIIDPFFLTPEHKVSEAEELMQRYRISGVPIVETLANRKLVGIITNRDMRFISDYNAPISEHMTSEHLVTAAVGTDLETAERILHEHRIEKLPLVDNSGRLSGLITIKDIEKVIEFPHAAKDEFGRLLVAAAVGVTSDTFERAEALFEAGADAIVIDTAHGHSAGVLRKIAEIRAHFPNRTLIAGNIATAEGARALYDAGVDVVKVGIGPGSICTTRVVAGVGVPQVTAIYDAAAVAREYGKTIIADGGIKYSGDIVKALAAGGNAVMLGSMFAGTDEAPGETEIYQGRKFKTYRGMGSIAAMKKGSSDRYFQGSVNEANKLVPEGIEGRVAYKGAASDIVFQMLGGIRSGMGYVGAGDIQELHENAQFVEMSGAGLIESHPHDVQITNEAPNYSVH

Structure (SMILES): C[C@@H](Oc1cc[n+]([O-])c2ccccc12)c1cn(-c2ccc(Cl)cc2)nn1 [A110]
- Ki (BaIMPDH (wild-type) [1]): 0.081 µM and 0.059 µM
- Kd (BaIMPDH (wild-type) [2]; [7]): 0.065 µM
- Kd (BaIMPDH (wild-type) [3]; k–8/k8): 1.7 µM
- Kd (BaIMPDH (wild-type) [3]; k–9/k9): 0.085 µM
- kon at 6 µM (BaIMPDH (wild-type) [3]; read-out: k8 (inhibitor association with E·IMP)): 9.33e+06 M⁻¹ s⁻¹
- kon (BaIMPDH (wild-type) [3]; read-out: k9 (inhibitor association with E-XMP*)): 3.52e+06 M⁻¹ s⁻¹
- koff (BaIMPDH (wild-type) [3]; read-out: k–8 (inhibitor dissociation from E·IMP·I)): 15.6 s⁻¹
- koff (BaIMPDH (wild-type) [3]; read-out: k–9 (inhibitor dissociation from E-XMP*·I)): 0.3 s⁻¹

Structure (SMILES): Nc1ncnc2c1ncn2[C@@H]1O[C@H](COP(=O)(O)OP(=O)(O)O)[C@@H](O)[C@H]1O [ADP]
- Ki (BaIMPDH; read-out: Ki,app): 6200 µM

Structure (SMILES): O=C(Cn1c(-c2ccccn2)nc2ccccc21)Nc1ccc2ccccc2c1 [C91]
- fold more potent inhibitor of BaIMPDH (BaIMPDH (wild-type) [4]): 10 fold
- k-9 (BaIMPDH (wild-type) [2]): 0.0976
- Kd (BaIMPDH (wild-type) [2]; [8]): 0.28 µM
- Kd (BaIMPDH (wild-type) [2]; [7]): 0.11 µM
- koff (BaIMPDH (wild-type) [2]; read-out: k-8): 0.239 s⁻¹
- koff (BaIMPDH (wild-type) [2]; read-out: k-9): 0.0844 s⁻¹

Structure (SMILES): Cn1nc(CC(=O)Nc2ccc3oc4c(c3c2)CCCC4)c2ccccc2c1=O [D67]
- Ki (BaIMPDH (wild-type) [1]): 0.698 µM and 0.671 µM
- Kd (BaIMPDH (wild-type) [2]; [8]): 1.1 µM
- Kd (BaIMPDH (wild-type) [2]; [7]): 0.42 µM

Structure (SMILES): NC(=O)C1=CN([C@@H]2O[C@H](COP(=O)(O)OP(=O)(O)OC[C@H]3O[C@@H](n4cnc5c(N)ncnc54)[C@H](O)[C@@H]3O)[C@@H](O)[C@H]2O)C=CC1 [NADH]
- k4 (NADH release) (BaIMPDH (wild-type) [3]): >446 s^–1
- k–4 (NADH association) (BaIMPDH (wild-type) [3]): >3.8 μM^–1 s^–1
- Kd (BaIMPDH (wild-type) [3]; read-out: k4/k–4): 120 µM

Structure (SMILES): NC(=O)c1ccc[n+]([C@@H]2O[C@H](COP(=O)([O-])OP(=O)(O)OC[C@H]3O[C@@H](n4cnc5c(N)ncnc54)[C@H](O)[C@@H]3O)[C@@H](O)[C@H]2O)c1 [NAD^+]
- apparent Michaelis constant for NAD+, KmB (BaIMPDH (wild-type) [5]): 683 [ 601 , 779 ] µM
- Ki (BaIMPDH (wild-type) [5]; read-out: Ki(NAD^+)): 9600 ± 2100 µM
- Km (BaIMPDH (wild-type) [5]; read-out: Km(NAD^+)): 590 ± 100 µM
- k2 (NAD^+ association with E·IMP) (BaIMPDH (wild-type) [3]): 0.0309 μM^–1 s^–1
- k7 (NAD^+ association with E-XMP*) (BaIMPDH (wild-type) [3]): 0.00398 μM^–1 s^–1
- k–2 (NAD^+ dissociation from E·IMP·NAD^+) (BaIMPDH (wild-type) [3]): 11.7 s^–1
- k–7 (NAD^+ dissociation from E-XMP*·NAD^+) (BaIMPDH (wild-type) [3]): 31.8 s^–1
- Kd (BaIMPDH (wild-type) [3]; read-out: k–2/k2): 380 µM
- Kd (BaIMPDH (wild-type) [3]; read-out: k–7/k7): 8000 µM

Structure (SMILES): C/C(=N\O)c1cccc(C(C)(C)NC(=O)Nc2ccc(Cl)c(C(N)=O)c2)c1 [P32]
- Ki (CjIMPDH): 0.095 ± 0.005 µM
- Ki (SpIMPDH): 0.164 ± 0.01 µM
- Ki (SaIMPDH): 0.023 ± 0.01 µM
- Ki (CpIMPDH): 0.005 ± 0.002 µM
- Ki (BaIMPDH (wild-type) [1]): 0.052 µM and 0.047 µM

Structure (SMILES): C/C(=N\OCCN)c1cccc(C(C)(C)NC(=O)Nc2ccc(Cl)c([N+](=O)[O-])c2)c1 [P131]
- Ki (BaIMPDH (wild-type) [1]): 0.094 µM
- Kd (BaIMPDH (wild-type) [2]; [8]): 0.11 µM
- Kd (BaIMPDH (wild-type) [2]; [7]): 0.061 µM

Structure (SMILES): C=C(C)c1cccc(C(C)(C)NC(=O)Nc2ccc(Cl)c(NC3OCC(O)C(O)C3O)c2)c1 (stereo not shown) [P176]
- Ki (CjIMPDH): 0.177 µM and 0.077 µM
- Ki (BaIMPDH (wild-type) [1]): 0.016 µM

Structure (SMILES): C=C(C)c1cccc(C(C)(C)NC(=O)Nc2ccc(Cl)c(OC3OC(CO)C(O)C3O)c2)c1 (stereo not shown) [P178]
- difference in affinity across the three enzymes (Ba-, Cj-, and ClpIMPDH): > 5 fold
- Ki (CjIMPDH): 0.097 µM
- Ki (BaIMPDH (wild-type) [1]): 0.012 µM

Structure (SMILES): C/C(=N\O)c1cccc(C(C)(C)NC(=O)Nc2ccc(Cl)c(-c3nc(C(F)(F)F)cs3)c2)c1 [P182]
- Ki (CjIMPDH): 0.032 ± 0.006 µM
- Ki (BaIMPDH (wild-type) [1]): 0.008 µM

Structure (SMILES): CC(C)(NC(=O)Nc1ccc(Cl)cc1)c1cccc(/C(N)=N/O)c1 [P200]
- difference in affinity across the three enzymes (Ba-, Cj-, and ClpIMPDH): > 5 fold
- Ki (CjIMPDH): 0.145 ± 0.04 µM
- Ki (BaIMPDH (wild-type) [1]): 0.016 µM

Structure (SMILES): C=C(C)c1cccc(C(C)(C)NC(=O)Nc2ccc(Cl)c(NC3OC[C@@H](O)[C@H](O)[C@@H]3O)c2)c1 (stereo partly shown) [P221]
- Ki (CjIMPDH): 0.046 µM
- Ki (BaIMPDH (wild-type) [1]): 0.02 µM

Structure (SMILES): C=C(C)c1cccc(C(C)(C)NC(=O)Nc2ccc(Cl)c(OCC(=O)O)c2)c1 [P225]
- Ki (CjIMPDH): 0.02 ± 0.01 µM
- Ki (BaIMPDH (wild-type) [1]): 0.004 µM and 0.00043 µM

Structure (SMILES): C[C@H](Oc1cccc2ccccc12)C(=O)Nc1ccc2oc(-c3ccncc3)nc2c1 [Q21]
- Ki (BaIMPDH (wild-type) [1]): 0.063 µM and 0.023 µM
- preference for E-XMP* over E·IMP (BaIMPDH (wild-type) [2]): same affinity for both enzyme forms
- Kd (BaIMPDH (wild-type) [2]; [8]): 0.038 µM
- Kd (BaIMPDH (wild-type) [2]; [7]): 0.043 µM

Structure (SMILES): O=c1[nH]c(=O)c2ncn([C@@H]3O[C@H](COP(=O)(O)O)[C@@H](O)[C@H]3O)c2[nH]1 [XMP, xanthosine 5′-monophosphate]
- Kd (BaIMPDH (wild-type) [6]): 404 µM

Structure (SMILES): NC(=O)c1csc([C@@H]2O[C@H](CO)[C@@H](O)[C@H]2O)n1 [tiazofurin]
- Ki (BaIMPDH): 620 µM
